US11642348B2, “Substituted benzene compounds” (Epizyme, Inc., priority 2012, dated 2023)
Read-outs that look alike come from different tables or passages of the source.

Tests used:
[1] = target: wild-type EZH2 (PRC2 complex) (Homo sapiens (Human), UniProt Q15910); test: PRC2 enzyme assay on peptide substrates (wild-type EZH2)
[2] = tested on: H3K27me3 in WSU-DLCL2 cells; test: WSU-DLCL2 methylation assay (H3K27me3 ELISA); format: cell-based; conditions: Homo sapiens, 96 hours
WSU-DLCL2 cells = test: Cell proliferation analysis (WSU-DLCL2, Cell Titer Glo); format: cell-based; conditions: Homo sapiens, 6 days
[3] = WSUDLCL2, Table 3A, read-out: H3K27Me3 ELISA IC50
[4] = WSUDLCL2, Table 3B, read-out: WSU proliferation IC50
[5] = WSUDLCL2, Table 3B, read-out: ELISA H3K27me3 IC50

Chain of wild-type EZH2 (PRC2 complex) (Q15910 other isoform, or with tags, fused parts or gaps): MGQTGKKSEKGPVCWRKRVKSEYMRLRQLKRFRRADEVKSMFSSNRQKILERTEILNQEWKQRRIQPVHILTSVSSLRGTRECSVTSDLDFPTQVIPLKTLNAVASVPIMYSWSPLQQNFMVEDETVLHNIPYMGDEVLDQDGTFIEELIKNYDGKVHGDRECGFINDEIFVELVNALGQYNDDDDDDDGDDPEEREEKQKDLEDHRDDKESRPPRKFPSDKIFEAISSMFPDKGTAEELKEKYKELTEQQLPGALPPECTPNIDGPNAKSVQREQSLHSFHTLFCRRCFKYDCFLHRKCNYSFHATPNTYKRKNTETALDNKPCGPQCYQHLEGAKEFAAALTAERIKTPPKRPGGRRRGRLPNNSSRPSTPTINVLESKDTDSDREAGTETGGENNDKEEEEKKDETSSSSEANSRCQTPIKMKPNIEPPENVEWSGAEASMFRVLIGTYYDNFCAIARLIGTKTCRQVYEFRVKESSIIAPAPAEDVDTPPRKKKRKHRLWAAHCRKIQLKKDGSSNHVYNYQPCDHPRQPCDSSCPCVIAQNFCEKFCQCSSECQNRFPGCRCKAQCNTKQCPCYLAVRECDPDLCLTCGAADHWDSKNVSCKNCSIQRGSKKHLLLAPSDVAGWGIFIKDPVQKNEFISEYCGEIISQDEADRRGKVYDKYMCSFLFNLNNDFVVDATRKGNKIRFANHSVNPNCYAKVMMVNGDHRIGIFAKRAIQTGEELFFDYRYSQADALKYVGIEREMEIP
Chain of wild-type EZH2 (PRC2 complex) (O75530 whole entry partner): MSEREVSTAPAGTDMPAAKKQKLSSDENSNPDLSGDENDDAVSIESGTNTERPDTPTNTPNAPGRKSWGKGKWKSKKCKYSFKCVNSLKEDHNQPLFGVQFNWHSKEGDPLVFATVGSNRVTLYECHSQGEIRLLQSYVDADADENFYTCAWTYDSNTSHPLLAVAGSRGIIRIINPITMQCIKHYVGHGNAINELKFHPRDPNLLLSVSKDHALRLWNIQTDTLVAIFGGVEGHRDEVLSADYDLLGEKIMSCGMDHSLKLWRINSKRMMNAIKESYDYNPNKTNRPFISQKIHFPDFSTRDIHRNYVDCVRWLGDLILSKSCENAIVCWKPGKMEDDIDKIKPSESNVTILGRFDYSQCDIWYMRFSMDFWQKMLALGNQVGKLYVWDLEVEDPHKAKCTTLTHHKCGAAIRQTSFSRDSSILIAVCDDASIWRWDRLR
Chain of wild-type EZH2 (PRC2 complex) (Q15022 whole entry partner): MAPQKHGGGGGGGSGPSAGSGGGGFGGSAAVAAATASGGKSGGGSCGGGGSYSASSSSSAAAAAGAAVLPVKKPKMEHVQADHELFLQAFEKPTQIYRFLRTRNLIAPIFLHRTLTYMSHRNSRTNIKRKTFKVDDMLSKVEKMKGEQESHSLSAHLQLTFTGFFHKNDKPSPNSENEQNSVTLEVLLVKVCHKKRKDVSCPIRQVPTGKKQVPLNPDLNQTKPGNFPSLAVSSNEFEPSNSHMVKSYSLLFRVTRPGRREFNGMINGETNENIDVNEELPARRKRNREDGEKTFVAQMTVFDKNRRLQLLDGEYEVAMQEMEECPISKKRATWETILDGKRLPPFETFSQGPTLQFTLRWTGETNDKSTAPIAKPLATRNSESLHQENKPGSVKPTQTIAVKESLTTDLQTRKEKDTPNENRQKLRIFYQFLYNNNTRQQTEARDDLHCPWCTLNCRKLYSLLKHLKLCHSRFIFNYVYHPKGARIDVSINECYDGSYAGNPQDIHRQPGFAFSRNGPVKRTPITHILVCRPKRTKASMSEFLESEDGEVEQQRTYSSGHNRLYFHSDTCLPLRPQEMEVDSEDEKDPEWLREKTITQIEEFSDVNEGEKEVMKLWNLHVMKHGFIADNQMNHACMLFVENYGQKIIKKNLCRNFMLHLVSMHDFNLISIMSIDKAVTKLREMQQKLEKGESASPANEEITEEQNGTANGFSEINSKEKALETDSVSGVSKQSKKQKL
Chain of wild-type EZH2 (PRC2 complex) (Q09028 whole entry partner): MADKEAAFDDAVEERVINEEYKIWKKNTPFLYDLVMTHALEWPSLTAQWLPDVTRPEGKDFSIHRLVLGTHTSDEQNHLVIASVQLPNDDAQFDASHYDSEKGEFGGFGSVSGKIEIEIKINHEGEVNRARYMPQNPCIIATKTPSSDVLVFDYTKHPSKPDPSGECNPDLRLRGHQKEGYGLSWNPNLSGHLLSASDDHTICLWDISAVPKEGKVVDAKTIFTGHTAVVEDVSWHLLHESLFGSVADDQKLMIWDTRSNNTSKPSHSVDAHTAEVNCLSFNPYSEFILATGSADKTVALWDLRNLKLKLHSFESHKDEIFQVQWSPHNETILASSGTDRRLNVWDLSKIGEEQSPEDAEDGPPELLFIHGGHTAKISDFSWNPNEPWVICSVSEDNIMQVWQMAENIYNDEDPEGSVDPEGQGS

Row | IC50 [1] [nM] | IC50 [2, 3] [nM] | IC50 [2, 5] [nM] | Compound | IC50 (WSU-DLCL2 cells; [4]) [nM] | also measured
1 | 13.1 |  |  | CCN(c1cc(-c2ccc(OCCOC)nc2)cc(C(=O)NCc2c(C)cc(C)[nH]c2=O)c1C)[C@H]1CC[C@H](N(C)C)CC1 [Compound 5, N-((4,6-dimethyl-2-oxo-1,2-dihydropyridin-3-yl)methyl)-3-(((trans)-4-(dimethylamino)cyclohexyl)(ethyl)amino)-5-(6-(2-methoxyethoxy)pyridin-3-yl)-2-methylbenzamide] |  | 
2 | 15.4 | 57.5 |  | CCN(c1cc(-c2ccc(OCCOCCOC)cc2)cc(C(=O)NCc2c(C)cc(C)[nH]c2=O)c1C)[C@H]1CC[C@H](N(C)C)CC1 [Compound 6, N-((4,6-dimethyl-2-oxo-1,2-dihydropyridin-3-yl)methyl)-5-(((trans)-4-(dimethylamino)cyclohexyl)(ethyl)amino)-4′-(2-(2-methoxyethoxy)ethoxy)-4-methyl-[1,1′-biphenyl]-3-carboxamide] |  | 
3 | 6.27 | 673 |  | CCN(c1cc(OC)cc(C(=O)NCc2c(C)cc(C)[nH]c2=O)c1C)[C@H]1CC[C@H](N(C)CCOC)CC1 [Compound 11, N-((4,6-dimethyl-2-oxo-1,2-dihydropyridin-3-yl)methyl)-3-(ethyl((trans)-4-((2-methoxyethyl)(methyl)amino)cyclohexyl)amino)-5-methoxy-2-methylbenzamide] |  | 
4 | 29 | 308 |  | CCN(c1cc(OCCOC)cc(C(=O)NCc2c(C)cc(C)[nH]c2=O)c1C)[C@H]1CC[C@H](N(C)CCOC)CC1 [Compound 12, N-((4,6-dimethyl-2-oxo-1,2-dihydropyridin-3-yl)methyl)-3-(ethyl((trans)-4-((2-methoxyethyl)(methyl)amino)cyclohexyl)amino)-5-(2-methoxyethoxy)-2-methylbenzamide] |  | 
5 |  | > 50000 |  | CCN(c1cc(OCCN2CCOCC2)cc(C(=O)NCc2c(C)cc(C)[nH]c2=O)c1C)[C@H]1CC[C@H](N(C)CCOC)CC1 [Compound 13, N-((4,6-dimethyl-2-oxo-1,2-dihydropyridin-3-yl)methyl)-3-(ethyl((trans)-4-((2-methoxyethyl)(methyl)amino)cyclohexyl)amino)-2-methyl-5-(2-morpholinoethoxy)benzamide] |  | 
6 |  | 17100 |  | CCN(c1cc(OCCCN2CCOCC2)cc(C(=O)NCc2c(C)cc(C)[nH]c2=O)c1C)[C@H]1CC[C@H](N(C)CCOC)CC1 [Compound 14, N-((4,6-dimethyl-2-oxo-1,2-dihydropyridin-3-yl)methyl)-3-(ethyl((trans)-4-((2-methoxyethyl)(methyl)amino)cyclohexyl)amino)-2-methyl-5-(3-morpholinopropoxy)benzamide] |  | 
7 | 8.59 | 553 |  | CCN(c1cc(-c2cnc(C)cn2)cc(C(=O)NCc2c(C)cc(C)[nH]c2=O)c1C)[C@H]1CC[C@H](N(C)CCOC)CC1 [Compound 18] |  | 
8 | 9.81 |  |  | CCN(c1cc(-c2cnc(C)nc2)cc(C(=O)NCc2c(C)cc(C)[nH]c2=O)c1C)[C@H]1CC[C@H](N(C)CCOC)CC1 [Compound 19] |  | 
9 | < 5 |  |  | CCN(c1cc(-c2cnc(OC)nc2)cc(C(=O)NCc2c(C)cc(C)[nH]c2=O)c1C)[C@H]1CC[C@H](N(C)CCOC)CC1 [Compound 20] |  | 
10 | 28.3 | 1040 |  | CCN(c1cc(-c2cnccn2)cc(C(=O)NCc2c(C)cc(C)[nH]c2=O)c1C)[C@H]1CC[C@H](N(C)CCOC)CC1 [Compound 22] |  | 
11 | < 5 | 401 |  | CCN(c1cc(-c2cnn(C)c2)cc(C(=O)NCc2c(C)cc(C)[nH]c2=O)c1C)[C@H]1CC[C@H](N(C)CCOC)CC1 [Compound 23] |  | 
12 |  | 87 |  | CCN(c1cc(-c2ccc(CN3CCOCC3)cc2)cc(C(=O)NCc2c(C)cc(C)[nH]c2=O)c1C)[C@H]1CC[C@H](N(C)CCOC)CC1 [Compound 26] |  | IC50 (WSU-DLCL2 cells; WSUDLCL2, Table 3A, read-out: WSU Prolif. IC50): 138 nM
13 |  |  | 14 | CCN(c1cc(C#CCN2CCOCC2)cc(C(=O)NCc2c(C)cc(C)[nH]c2=O)c1C)C1CCC(N(C)C)CC1 (stereo not shown) [Compound 111] | 201 | 
14 | < 5 |  |  | CCN(c1cc(C#CCN2CCOCC2)cc(C(=O)NCc2c(C)cc(C)[nH]c2=O)c1C)[C@H]1CC[C@H](N(C)C)CC1 [Compound 111] |  | 
15 |  |  | 179 | CCN(c1cc(C#CCN2CCCN(C)CC2)cc(C(=O)NCc2c(C)cc(C)[nH]c2=O)c1C)C1CCC(N(C)C)CC1 (stereo not shown) [Compound 112] | 798 | 
16 |  |  | 166 | CCN(c1cc(-c2ccc(N3CCN(C)CC3)nc2)cc(C(=O)NCc2c(C)cc(C)[nH]c2=O)c1C)C1C[C@@H](C)N[C@H](C)C1 (stereo partly shown) [Compound 124] | 158 | 
17 |  |  | 291 | CCN(c1cc(-c2ccc(N3CCN(C)CC3)nc2)cc(C(=O)NCc2c(C)cc(C)[nH]c2=O)c1C)C1CCN(C)CC1 [Compound 125] | 155 | 
18 |  |  | 354 | CCN(c1cc(-c2ccc(COC)nc2)cc(C(=O)NCc2c(C(C)C)cc(C)[nH]c2=O)c1C)C1CCOCC1 [Compound 129] | 254 | 
19 |  |  | 218 | CCN(c1cc(-c2ccc(OC)nc2)cc(C(=O)NCc2c(C)cc(C)[nH]c2=O)c1C)C1CCOCC1 [Compound 130] | 218 | 
20 |  |  |  | CCN(c1cc(-c2ccc(OC3CCN(C)CC3)nc2)cc(C(=O)NCc2c(C)cc(C)[nH]c2=O)c1C)C1CCOCC1 [Compound 133] | 503 | 

Row | IC50 [1] [nM] | IC50 [2, 3] [nM] | IC50 [2, 5] [nM] | Compound | IC50 (WSU-DLCL2 cells; [4]) [nM] | also measured
21 |  |  | 192 | CCN(c1cc(-c2ccc(CN3CCCN(C)CC3)nc2)cc(C(=O)NCc2c(C)cc(C)[nH]c2=O)c1C)C1CCOCC1 [Compound 135] | 176 | 
22 |  |  | 259 | CCN(c1cc(-c2ccc(CN3CCCN(C)CC3)nc2)cc(C(=O)NCc2c(C(C)C)cc(C)[nH]c2=O)c1C)C1CCOCC1 [Compound 136] | 566 | 
23 |  |  | 56 | CCN(c1cc(-c2ccc(N3CCCN(C)CC3)nc2)cc(C(=O)NCc2c(C)cc(C)[nH]c2=O)c1C)C1CCOCC1 [Compound 137] | 505 | 
24 |  |  | 288 | CCN(c1cc(-c2ccc(CN3CCCC3)nc2)cc(C(=O)NCc2c(C)cc(C)[nH]c2=O)c1C)C1CCOCC1 [Compound 138] | 178 | 
25 |  |  | 95.8 | CCN(c1cc(-c2ccc(CN3CCCCC3)nc2)cc(C(=O)NCc2c(C)cc(C)[nH]c2=O)c1C)C1CCOCC1 [Compound 139] | 24.9 | 
26 |  |  |  | CCN(c1cc(-c2ccc(CN3CCC(O)CC3)nc2)cc(C(=O)NCc2c(C(C)C)cc(C)[nH]c2=O)c1C)C1CCOCC1 [Compound 140] | 716 | 
27 |  |  | 349 | CCN(c1cc(-c2ccc(CN3CCC[C@H](O)C3)nc2)cc(C(=O)NCc2c(C(C)C)cc(C)[nH]c2=O)c1C)C1CCOCC1 [Compound 141] | 123 | 
28 |  |  | 699 | CCN(c1cc(-c2ccc(CN3CCOCC3)nc2)cc(C(=O)NCc2c(C(F)(F)F)cc(C)[nH]c2=O)c1C)C1CCOCC1 [Compound 142] | 2000 | 
29 |  |  | 18 | CCN(c1cc(-c2ccc(N3CCC(O)CC3)nc2)cc(C(=O)NCc2c(C)cc(C)[nH]c2=O)c1C)[C@H]1CC[C@H](N(C)C)CC1 [Compound 143] | 276 | 
30 |  |  | 92 | CCN(c1cc(-c2ccc(N3CC(O)C3)nc2)cc(C(=O)NCc2c(C)cc(C)[nH]c2=O)c1C)[C@H]1CC[C@H](N(C)C)CC1 [Compound 144] | 1540 | 
31 |  |  | 84.2 | CCN(c1cc(-c2ccc(CN3CCOCC3)nc2)cc(C(=O)NCc2c(C)cc(C)[nH]c2=O)c1C)[C@H]1CC[C@H](N(C)C)CC1 [Compound 145] | 185 | 
32 |  |  |  | CCN(c1cc(-c2ccc(CN3CCC(O)CC3)c(F)c2)cc(C(=O)NCc2c(C)cc(C)[nH]c2=O)c1C)C1CCOCC1 [Compound 153] | 476 | 
33 |  |  | 529 | CCN(c1cc(-c2ccc(CN3CC(O)C3)c(F)c2)cc(C(=O)NCc2c(C)cc(C)[nH]c2=O)c1C)C1CCOCC1 [Compound 154] | 394 | 
34 | < 5 | 140 |  | CCN(c1cc(C#CC2CCN(C3CC3)CC2)cc(C(=O)NCc2c(C)cc(C)[nH]c2=O)c1C)C1CCOCC1 [Compound 157] |  | 
35 | < 5 | 215 |  | CCN(c1cc(C#CC2CCN(C3CCC3)CC2)cc(C(=O)NCc2c(C)cc(C)[nH]c2=O)c1C)C1CCOCC1 [Compound 158] |  | 
36 | < 5 | 262 |  | CCN(c1cc(C#CC2CCN(C3COC3)CC2)cc(C(=O)NCc2c(C)cc(C)[nH]c2=O)c1C)C1CCOCC1 [Compound 159] |  | 
37 | 14 | 94 |  | CCN(c1cc(C#CC2CCN(C(C)=O)CC2)cc(C(=O)NCc2c(C)cc(C)[nH]c2=O)c1C)[C@H]1CC[C@H](N(C)C)CC1 [Compound 160] |  | 
38 | < 5 | 34 |  | CCN(c1cc(C#CC2CCN(CC(F)(F)F)CC2)cc(C(=O)NCc2c(C)cc(C)[nH]c2=O)c1C)[C@H]1CC[C@H](N(C)C)CC1 [Compound 161] |  | 
39 | 12 |  |  | CCN(c1cc(C#CC2CCN(C3CN(C)C3)CC2)cc(C(=O)NCc2c(C)cc(C)[nH]c2=O)c1C)C1CCOCC1 [Compound 162] |  | 
40 | < 5 | 43 |  | CCN(c1cc(C#CC2CCN(C)CC2)cc(C(=O)NCc2c(OC)cc(C)[nH]c2=O)c1C)C1CCOCC1 [Compound 163] |  | 

Row | Compound | IC50 [1] [nM] | IC50 [2, 3] [nM] | IC50 [2, 5] [nM] | IC50 (WSU-DLCL2 cells; [4]) [nM] | also measured
41 | CCN(c1cc(-c2ccc(OCCOC)cc2)cc(C(=O)NCc2c(OC)cc(C)[nH]c2=O)c1C)[C@H]1CC[C@H](N(C)C)CC1 [Compound 6b, 5-(((trans)-4-(dimethylamino)cyclohexyl)(ethyl)amino)-N-((4-methoxy-6-methyl-2-oxo-1,2-dihydropyridin-3-yl)methyl)-4′-(2-methoxyethoxy)-4-methyl-[1,1′-biphenyl]-3-carboxamide] | < 5 | 33.9 |  |  | 
42 | CCN(c1cc(C#CC2CCN(C)CC2)cc(C(=O)NCc2c(C)cc(C)[nH]c2=O)c1C)C1CCOCC1 [Compound 105, N-((4,6-dimethyl-2-oxo-1,2-dihydropyridin-3-yl)methyl)-3-(ethyl(tetrahydro-2H-pyran-4-yl)amino)-2-methyl-5-((1-methylpiperidin-4-yl)ethynyl)benzamide] |  | 150 |  |  | 
